The text below walks through data of patent publication US20160143877A1, “COMPOSITION FOR SUPPRESSING ADIPOCYTE DIFFERENTIATION, FOR REDUCING FAT ACCUMULATION AND/OR FOR PROMOTING ADIPONECTIN SECRETION AND USAGE FOR SAID COMPOSITION” (PUBLIC UNIVERSITY CORPORATION OSAKA CITY UNIVERSITY, priority 2013, published 2016).

The test system of data set [1] is 3T3-L1 adipocytes. Kind of data set: Fat (TG) accumulation in differentiated adipocytes, Oil red 0 staining and absorbance at 520 nm. To be noted: sesaminol 0.5 or 1.0 μg/ml added to differentiated adipocytes, three days. It counts as cell-based, Mouse. The method, then: In the same manner as in (1-1) in Example 1, preadipocyte 3T3-L1 cells were cultured until they reached 80 to 90% confluence. Then the medium was replaced with DMEM containing differentiation inducing agents which were bovine insulin (0.2 μM, Wako Pure Chemical Industries, Ltd.), dexamethasone (0.25 μM, Wako Pure Chemical Industries, Ltd.) and 3-isobutyl-1-methylxanthine (0.5 mM, Wako Pure Chemical Industries, Ltd.) (this is referred to as “Day 0 of differentiation induction”). After two days, the medium was replaced with DMEM containing only insulin (0.2 μM). Thereafter, the medium was replaced with fresh DMEM every two days and induction of differentiation was completed on Day 8 of differentiation induction to obtain adipocytes.
To the obtained adipocytes, the sesaminol solution was added so as to obtain the final concentration of sesaminol of 0.5 or 1.0 μg/ml. As a control, cells were cultured without addition of the sesaminol solution. […] Cells were analysed under a microscope (OLYMPUS IX-70: Olympus Corporation) and photographed. […] After microscopic observation, cells were added with isopropanol (3 ml) to extract Oil red 0 staining solution and the resulting extract was measured for absorbance at 520 nm. According to the measured values, TG accumulations in cells were compared. […]

Data set [2] deals with 3T3-L1 cells. Kind of data set: Adipocyte differentiation: TG accumulation by Oil red 0 staining, sesaminol added during differentiation induction. It counts as cell-based, Mouse. To be noted: read after Day 8. How it is done: Preadipocytes, when differentiated into adipocytes, intracellularly accumulate lipid droplets containing TG and the like. In the present Example, sesaminol was added to preadipocyte during induction of differentiation and intracellular TG after completion of induction was stained with an azo dye, Oil red 0, to evaluate an effect of sesaminol on adipocyte differentiation. Mouse fibroblast cell line 3T3-L1 (Japan Health Sciences Foundation) were used as preadipocytes. 3T3-L1 cells were inoculated at a concentration of 1.0×10^5 to 1.0×10^6 cells/ml and cultured until they reached 80 to 90% confluence in a 5% CO2 incubator at 37° C. The culture medium used was Dulbecco's modified Eagle's medium (DMEM: Nissui Pharmaceutical Co., Ltd.) containing 10% fetal bovine serum (FBS: Nichirei Biosciences, Inc.), penicillin (50 units/ml, Meiji Co., Ltd.) and streptomycin ([…], Meiji Co., Ltd.). […] After washing, cells were analysed under a microscope (OLYMPUS IX-70: Olympus Corporation) and photographed.

For data set [3], the system named is 3T3-L1 cells. Kind of data set: Adipocyte differentiation: glycerol-3-phosphate dehydrogenase (GPDH) activity of cells after differentiation induction. The class given is cell-based, Mouse. To be noted: sesaminol 0.5 or 1.0 μg/ml during differentiation induction; ** p<0.01 vs control. How it is done: GPDH is a rate-limiting enzyme of triacylglycerol (TG; also referred to as triglyceride) synthesis in adipocytes. […] Thus GPDH activity of cells after differentiation induction was measured according to the method of Wise and Green (Wise, L. S. and Green, H., (1979) Participation of one isozyme of cytosolic glycerophosphate dehydrogenase in the adipose conversion of 3T3 cells. The Journal of Biological Chemistry, 254, 273-275). Cells used for the GPDH assay were obtained in the same manner as described in (1-1) and (1-2). As a control, cells were differentiated without addition of the sesaminol solution.
Adipocytes derived from 3T3-L1 cells on or after Day 8 of induction were washed twice with PBS. Cells were added with a buffer for enzymatic extraction (100 mM triethanolamine, 2.5 mM EDTA) (300 μl) and collected using a cell scraper. […]
To a test tube containing the buffer for enzymatic extraction (2800 μl) which was maintained at 28° C. in a water bath, 2-mercaptoethanol (final concentration: 0.1 mM), NADH (final concentration: 0.12 mM), dihydroxyacetone phosphate (DHAP: SIGMA) (final concentration: 0.2 mM) and a measurement sample (50 μl) were added and the absorbance was measured over 3 minutes at 340 nm. GPDH activity was calculated using an extinction coefficient of NADH (6.22 mM^−1cm^−1) on the basis of the change of absorbance per minute (NADH variation). […]

Data set [4] relates to 3T3-L1 adipocytes. Nature of the data set: Adiponectin expression level in adipocytes by SDS-PAGE and western blotting. The class given is cell-based, Mouse. To be noted: sesaminol 0.5 or 1.0 μg/ml added to differentiated adipocytes, three days. The method, then:
Various physiologically active adipocytokines are secreted from adipocytes. Among these adipocytokines, adiponectin is known to improve insulin resistance and prevent atherosclerosis. In the present Example, the profile of adiponectin secretion after addition of sesaminol to adipocytes was analysed by SDS-PAGE and western blotting.
In the same manner as in (1-1) in Example 1, preadipocyte 3T3-L1 cells were cultured until they reached 80 to 90% confluence. […]
The sesaminol solution was added so as to obtain the final concentration of sesaminol of 0.5 or 1.0 μg/ml in adipocytes. […] An aliquot of the collected supernatant was subjected to protein quantification using Serva Blue G (Serva Electrophoresis GmbH) based on the absorbance at 595 nm in order to calculate the amount of sample applied to electrophoresis.
Equal volumes of the supernatant containing cell lysate and a sample buffer were mixed to prepare a sample for electrophoresis. […] The membrane was then subjected to reaction in a DAB solution (3,3′-diaminobenzidine tetrahydrochloride (10 mg), distilled water (1 ml), 0.2 M PBS (50 ml) and 30% H2O2 (100 μl)), dried and then subjected to quantification of intensity of bands using Scion Image (free software: Scion). The ratio of the band intensity of adiponectin relative to the band intensity of β-actin was calculated for the samples.
A general note: In western blotting, separated proteins are transferred to a membrane and probed.

Data set [5] has as its system various cell lines used in Examples. Kind of data set: Toxicity and viability check of the sesaminol solution on the cell lines used. The class given is cell-based. To be noted: sesaminol solution (3.0 mg/ml in DMSO) as used in Examples. How it is done:
The highly concentrated sesaminol solution was dissolved in dimethyl sulphoxide (DMSO) to prepare a sesaminol solution (3.0 mg/ml) to be used in Examples.

`Oc1cc2c(cc1C1OCC3C(c4ccc5c(c4)OCO5)OCC13)OCO2` (stereo not shown) [sesaminol]: the “size of lipid droplets in adipocytes (FIG. 3)” value in the data set with 3T3-L1 adipocytes [1] was “tend to decrease the size compared to the control”. In addition, the “TG accumulation in adipocytes (FIG. 4, percent of control)” value with 3T3-L1 adipocytes [1] (* p<0.05 vs control) is “decreased TG accumulation”. In addition, the “cells that did not contain stained lipid droplets (Oil red 0, FIG. 1)” value is “many cells” in the data set on 3T3-L1 cells [2] (sesaminol 0.5 μg/ml added on Days 0, 2, 4 and 6 of differentiation induction); “almost all the cells” in the data set on 3T3-L1 cells [2] (sesaminol 1.0 μg/ml added on Days 0, 2, 4 and 6 of differentiation induction). Further, the “GPDH activity of cells after differentiation induction (FIG. 2, percent of control)” value with 3T3-L1 cells [3] is on record as “decreased with an increase in the amount of sesaminol added”. Further, the “adiponectin expression level (band intensity ratio adiponectin/β-actin, control = 1, FIG. 5)” value in the data set on 3T3-L1 adipocytes [4] is recorded as “significantly enhanced with an increase in the amount of sesaminol added”. In addition, the “toxicity to and effect on viability of cell lines” value in data set [5] is “not toxic to and did not affect viability”.
